The nature of the series: Human HepG2 cell viability assay in 384 well format. The class given is toxicity, cell-based. Further details: dose 125 nL, time 70.5 hour; cytotoxicity at 70.5 h: concentration not given beside the values. The note with it: HepG2 cells, read-out: Inhibition.

SMILES strings stand for the structures.

`CN(C)c1cc(CNC(=O)c2ccccc2Cl)ccn1`: the cytotoxicity at 70.5 h is 1.6%. Turning to `CCOc1ncccc1NC(=O)C1CCS(=O)(=O)C1` (configuration not stated), the cytotoxicity at 70.5 h was 0.736%. For `CC(Cn1ccnc1)NC(=O)N(C)Cc1ccc2c(c1)OCCO2` (configuration not stated) the value was 26.7%; for `CN1C(=O)Cc2cc(-c3csc(CCN4CCOC4=O)n3)ccc21`, 6.81%. For the compound `CC(Cn1ccnc1)NC(=O)Cc1ccc2c(c1)OCCO2` (configuration not stated), the cytotoxicity at 70.5 h is -0.766%. The result for `COc1ccc(CC(=O)NC2CCN(CC(F)F)CC2)cc1OC` reads 0.793%. As to `O=C(NCc1cc[nH]n1)NCC(O)c1ccc(F)c(F)c1` (configuration not stated), the cytotoxicity at 70.5 h was 1.18%. The result for `CC(c1cc(F)ccc1F)N1CCN(Cc2nccn2C)CC1` (configuration not stated) reads 2.5%; that for `CC(O)CN1CCN(C(=O)c2ccc(N3CCCC3)nn2)CC1` (configuration not stated), 1.72%. As to `Cc1csc(NC(=O)CN2CCc3c(nc(C4CC4)n3C)C2)n1`, the cytotoxicity at 70.5 h was -1.68%. The result for `CCc1nc(CN(C)C2CCN(CCc3ccncc3)C2)no1` (configuration not stated) reads -1.6%; that for `Cc1nc(CNC(=O)N(CCCO)C2CCc3ccccc32)oc1C` (configuration not stated), -1.03%. On to `Cc1nccc(CNC(=O)N(CCCO)C2CCc3ccccc32)n1` (configuration not stated), for which the cytotoxicity at 70.5 h amounted to 30.5%. With `CCc1[nH]ncc1C(=O)N1CCCC(n2cc(C)cn2)C1` (configuration not stated), the cytotoxicity at 70.5 h is -5.59%.

As to `CCc1ncc2c(n1)CN(CCCc1nc3ccccc3o1)CC2`, the cytotoxicity at 70.5 h worked out at 0.768%.

In the case of `Cc1ncc(CNC(=O)N(CCCO)C2CCc3ccccc32)s1` (configuration not stated), the cytotoxicity at 70.5 h was -5.3%. Turning to `Cc1nc(C)n(C2CCCN(C(=O)c3c(C)nn4cccnc34)C2)n1` (configuration not stated), the cytotoxicity at 70.5 h was determined as 20.7%. As to `Cc1csc(C2CCCN(C(=O)c3c(C)nn4cccnc34)C2)n1` (configuration not stated), the cytotoxicity at 70.5 h is -4.25%. The result for `Cc1ccc(NC2CCN(C(=O)c3cccc4c3ccn4C)CC2)nn1` reads -3.5%; that for `Cc1nn2cccnc2c1C(=O)N1CCCC(n2cccn2)C1` (configuration not stated), 17.9%. For `O=C(c1cnn2cccnc12)N1CCCC(n2ccnc2)C1` (configuration not stated) the value was -3.58%; for `Cc1noc(C)c1CS(=O)(=O)CC(=O)N1CCc2sccc2C1`, -3.02%.

As for `CC(NC(=O)NCCCn1cncn1)c1ccccc1F` (configuration not stated), the cytotoxicity at 70.5 h was -4.63%. As to `Cc1csc(N2CCCN(CCC(=O)NC(N)=O)CC2)n1`, the cytotoxicity at 70.5 h was -1.42%. Turning to `c1ccc(Cc2noc(CN3CCOC(Cn4cccn4)C3)n2)cc1` (configuration not stated), the cytotoxicity at 70.5 h is -3.64%.

For `CCCc1nc(CN2CCOC(Cn3cccn3)C2)no1` (configuration not stated), the cytotoxicity at 70.5 h is -1.75%. As to `c1ccc2oc(CCCN3CCc4cncnc4C3)nc2c1`, the cytotoxicity at 70.5 h was -2.93%. Take `CC(C)c1nnc2n1CCN(C(=O)c1ccc(N(C)C)nn1)C2`: the cytotoxicity at 70.5 h was determined as 2.93%.

On to `Cc1nn2cccnc2c1C(=O)N1CCCC(n2ccnc2C)C1` (configuration not stated), for which the cytotoxicity at 70.5 h is -4.03%. As for `CCc1[nH]ncc1C(=O)N1CCCC(n2ccnc2C)C1` (configuration not stated), the cytotoxicity at 70.5 h is -7.72%.

`Cc1ncc2c(n1)CN(CCCc1ccccc1)CC2`: the cytotoxicity at 70.5 h was 0.152%.

In the case of `Cc1ccc(NC2CCN(C(=O)c3nccc4ccccc34)CC2)nn1`, the cytotoxicity at 70.5 h was -4.93%. `Cc1ccc(NC2CCN(C(=O)c3cccc4[nH]ncc34)CC2)nn1`: the cytotoxicity at 70.5 h is -4.9%. The result for `Cn1c(CNCC2CCCN2c2cccnn2)nc2ccccc21` (configuration not stated) reads -1.26%; that for `Cc1ccc(NC2CCN(C(=O)c3cccnc3O)CC2)nn1`, 16.5%. The result for `c1ccc(Cn2ccnc2CNCC2CCCN2c2cccnn2)cc1` (configuration not stated) reads 4.91%; that for `Cc1cnc(CN2CCCC2c2noc(C3CC3)n2)cn1` (configuration not stated), -6.3%; that for `Cc1nc(C2CCCN2Cc2nccn2CC(F)(F)F)no1` (configuration not stated), -2.36%. The result for `CN(Cc1nnc(C2CC2)n1C)C1CCN(CCc2cnn(C)c2)C1` (configuration not stated) reads 39.7%; that for `Cc1ccc(C(=O)N2CCN(Cc3ccccc3)CC2)n1C`, 21%.

For `Cc1cnc(CN(C)C2CCN(CCCc3cnn(C)c3)C2)o1` (configuration not stated), the cytotoxicity at 70.5 h is -8%. As for `CCCc1nc(CN2CCCN(Cc3nccn3C)CC2)no1`, the cytotoxicity at 70.5 h is -14.9%.

As for `O=C(Cc1ccc(F)c(Br)c1)N1CCN(CCO)CC1`, the cytotoxicity at 70.5 h is -3.28%.

Consider `Cc1nc(C)n(CC2CCCCN2Cc2cn3ccccc3n2)n1` (configuration not stated), for which the cytotoxicity at 70.5 h was -19.3%.

On to `CCN(CC(=O)NC1(C)CCS(=O)(=O)C1)Cc1ccc(OC)c(F)c1` (configuration not stated), for which the cytotoxicity at 70.5 h is -9.28%.

As to `Cc1cc(C(=O)N2CCN(Cc3ccsc3)CC2)n(C)n1`, the cytotoxicity at 70.5 h is -14.3%.

As for `CCc1sc(C(=O)N2CCC(Nc3ccc(C)nn3)CC2)cc1C`, the cytotoxicity at 70.5 h was -14.5%. On to `N#Cc1cccc(OCCN2CCn3c(nnc3C3CC3)C2)c1`, for which the cytotoxicity at 70.5 h was -11%.

As for `Cc1nc(C)n(CC2CCCN(Cc3cn4c(C)cccc4n3)C2)n1` (configuration not stated), the cytotoxicity at 70.5 h is -11.6%. Consider `c1ccc2cc(OCCCN3CCn4c(nnc4C4CC4)C3)ccc2c1`, for which the cytotoxicity at 70.5 h was -6.02%. As to `CN(CC(=O)NC1(C)CCS(=O)(=O)C1)Cc1ccc(Br)cc1` (configuration not stated), the cytotoxicity at 70.5 h stood at 7.79%.

With `COc1ccc(C(=O)NCCNC(=O)c2scnc2Cl)cc1`, the cytotoxicity at 70.5 h is -2.78%. The result for `Cc1ccc(C(=O)N2CCN(Cc3ccc(C#N)cc3)CC2)n1C` reads -2.38%; that for `Cc1ccc(-c2nc(CN3CCn4c(C)nnc4C3)co2)cc1`, -6.98%. The result for `O=C(CN1CCc2cncnc2C1)Nc1ccc(Cl)cn1` reads 6.59%. Turning to `Cc1ccc(NC2CCN(C(=O)c3cc4c(s3)CCC4)CC2)nn1`, the cytotoxicity at 70.5 h is -13.9%. Regarding `CCc1ncc2c(n1)CN(CC(=O)Nc1nncs1)CC2`, the cytotoxicity at 70.5 h was -7.12%. For `COc1ccc(S(=O)(=O)N2CCc3ccc(Cl)cc32)cc1C(=O)O` the value was 0.6%; for `Cc1ccc(S(=O)(=O)N2CCc3ccc(F)cc32)cc1C(=O)O`, -6.54%; for `COc1cc(S(=O)(=O)N2CCc3ccccc32)cc(C(=O)O)c1OC`, -5.58%. For `COc1cc(S(=O)(=O)N2CCc3cc(Br)ccc32)cc(C(=O)O)c1OC` the value was -0.737%. For the compound `Cc1ccc(NC2CCN(C(=O)c3ccc(C(N)=O)s3)CC2)nn1`, the cytotoxicity at 70.5 h is -5.83%. For `Fc1ccc(-c2nc(CN3CCn4c(nnc4C4CC4)C3)co2)cc1` the value was -8.13%; for `Cc1ccc(-c2nc(CN3CCn4c(nnc4C4CC4)C3)co2)c(C)c1`, -5.17%; for `Cc1oc(C)c(C(=O)N2CCCN(c3nccs3)CC2)c1C`, -5.97%. For `O=C(c1ccc2nncn2c1)N1CCCCC1Cn1cccn1` (configuration not stated) the value was 8.64%; for `CCc1noc(C(C)N2CCN(S(=O)(=O)N3CCCC3)CC2)n1` (configuration not stated), -8.69%. For `CCc1noc(C(C)N2CCC(C)CC2)n1` (configuration not stated) the value was -3.85%; for `CCc1noc(C(C)N2CCN(CC(C)C)CC2)n1` (configuration not stated), 12.8%.

`CCC1CN(Cc2cccc(C(=O)N(C)C)c2)CCN1CCOC` (configuration not stated): the cytotoxicity at 70.5 h is -8.03%. Consider `Cc1ccc(CCN2CCC(N(C)Cc3noc(C4CC4)n3)C2)cc1` (configuration not stated), for which the cytotoxicity at 70.5 h stood at 3.87%. For `CC(C)CC(CNC(=O)NCc1cc[nH]n1)N1CCOCC1` (configuration not stated) the value was 39.4%; for `COc1cc(CNC(=O)C2CC(=O)N(C(C)C)C2)ccn1` (configuration not stated), -16.6%.

`O=C(Nc1nccs1)NC1CCN(Cc2ccccc2)C1` (configuration not stated): the cytotoxicity at 70.5 h was -8.23%. The result for `Cc1noc(C2CCN(C(=O)c3ccc(N(C)C)nc3)CC2)n1` reads -29.1%; that for `Cc1ccccc1-c1cc(C(=O)NCCN2CCCS2(=O)=O)[nH]n1`, -15.5%; that for `CC(C)c1cc(C(=O)NCCN2CCCS2(=O)=O)n[nH]1`, -19.6%.

For the compound `Cc1noc(C2CCN(C(=O)CN(C)c3ccc(Cl)cn3)CC2)n1`, the cytotoxicity at 70.5 h was -20.9%. For `CN1CCN(c2cc(CNC(=O)c3ccc(=O)n(C)c3)ccn2)CC1`, the cytotoxicity at 70.5 h was -15.6%. Consider `COc1cc(C)nc(N2CCN(C(=O)CN(C)C3CC3)CC2)n1`, for which the cytotoxicity at 70.5 h was -4.51%. For `COc1cc(C)nc(N2CCN(C(=O)COCC(F)(F)F)CC2)n1`, the cytotoxicity at 70.5 h was -15.4%. `CCn1ccnc1CN1CCCN(C(=O)c2cccn2C)CC1`: the cytotoxicity at 70.5 h stood at 23.9%. Turning to `Cn1cnc2c1CCN(Cc1cccc(C(N)=O)c1)C2`, the cytotoxicity at 70.5 h is -7.77%. The result for `Cn1cc(CN2CCCN(C(=O)c3cc[nH]n3)CC2)cn1` reads -9.96%. For `CCc1nc(C2CCCN2C(=O)c2ncoc2CC)no1` (configuration not stated), the cytotoxicity at 70.5 h is -5.48%.

`CCc1[nH]ncc1C(=O)N1CCCC(n2nc(C)nc2C)C1` (configuration not stated): the cytotoxicity at 70.5 h worked out at 19.7%.

With `COc1ccc(CNC(=O)N2CCC(Cc3cnn(C)c3)C2)cc1C` (configuration not stated), the cytotoxicity at 70.5 h was -3.46%. Take `O=C(NCc1nn(-c2ccccc2)c2c1CCC2)NC1CC1`: the cytotoxicity at 70.5 h is -19%. For the compound `Cc1cc(C)n(C2CCCN(C(=O)COCC(F)(F)F)C2)n1` (configuration not stated), the cytotoxicity at 70.5 h is -22.5%.

As to `c1cnnc(N2CCCC2CNCc2nc(C3CC3)no2)c1` (configuration not stated), the cytotoxicity at 70.5 h is -11.8%.

On to `CC(=O)N(Cc1noc(C2CC2)n1)C1CCN(Cc2ccncc2)C1` (configuration not stated), for which the cytotoxicity at 70.5 h stood at 19.8%. With `CCc1nc(C2CCCN2C(=O)c2nccnc2N)no1` (configuration not stated), the cytotoxicity at 70.5 h was -18.5%. The result for `Cc1cnn(CC2CCCN2C(=O)c2ccc3nnc(C)n3c2)c1` (configuration not stated) reads -1.07%; that for `CCc1nc(C)ncc1C(=O)N1CCCC(n2nc(C)nc2C)C1` (configuration not stated), -12%; that for `CSC(C)C(=O)N1CCCN(Cc2cscn2)CC1` (configuration not stated), 17.9%. Regarding `CC(Cn1ccnc1)NC(=O)NCCNC(=O)C(C)C` (configuration not stated), the cytotoxicity at 70.5 h turned out to be 16.2%.

Take `Cc1ccc(OCC(=O)NS(=O)(=O)c2cccnc2)cc1C`: the cytotoxicity at 70.5 h was 23.3%. For `COc1cccc(CNCc2c(C(C)C)nn(C)c2N(C)C)c1OC` the value was -3.04%; for `CC(C)Cc1noc(CN2CCN(CCO)CC2)n1`, -4.77%. For the compound `CC(C)Cc1noc(CN2CCOCC2)n1`, the cytotoxicity at 70.5 h was -0.996%. For `Cc1nn(C)c(N(C)C)c1CNCc1cccc(OCCN(C)C)c1`, the cytotoxicity at 70.5 h stood at 27.3%. The result for `CCn1ccnc1CN1CCN(CC(=O)NC(C)(C#N)C2CC2)CC1` (configuration not stated) reads -6.12%.

Values taken from ChEMBL document CHEMBL3507680, “University of Dundee, Gates Library screen for HepG2 cell viability”.
